Source: publication PMC8569681, “New Pyrimidine and Pyridine Derivatives as Multitarget Cholinesterase Inhibitors: Design, Synthesis, and In Vitro and In Cellulo Evaluation” (ACS Chemical Neuroscience, 2021)
“Also recorded” adds a separate entry of the source.

Assays:
[1] = Antioxidant activity, DPPH spectrophotometric method; details: for antioxidant activity (reaction with DPPH): DPPH about 25 μM, antioxidant 60 μM; for reaction time (time for reaching the plateau): DPPH, absorbance at 515 nm
Description: The antioxidant activity assays were carried out according to the 2,2-diphenyl-1-picrylhydrazyl (DPPH) spectrophotometric method.[34] Initially, to assess whether the compounds had antioxidant activity and to define the time required by each antioxidant to reach the steady state, the reduction in absorbance over time at 515 nm of a solution of DPPH mixed with the tested compound was recorded until reaching the plateau. […] The value of EC50 can be extrapolated by plotting the percentage of residual DPPH at the steady state as a function of the molar ratio of the antioxidant to initial DPPH.
2,2-Diphenyl-1-picrylhydrazyl (DPPH), MeOH, and ascorbic acid, used as the reference standard, were purchased from Sigma-Aldrich. Micropipettes Labmate (BRAND Dig. 10–100 μL; Dig. 100–1000 μL) and Transferpette (HIGH TECH LAB LM200: 20–200 μL; LM5000: 1000–5000 μL) were used to collect the samples. The assays were carried out by a double beam UV–vis Lambda 40 Perkin Elmer spectrophotometer using optical polystyrene cuvettes (10 × 10 × 45 mm, 340–800 nm optical transparency); each measure was repeated at least in triplicate. For data processing, UV-WIN Lab version 2.0 (Perkin Elmer Corporation) was used. The antioxidant activity of the tested compounds was evaluated by the DPPH method[34] based on the ability of antioxidant compounds to react with the stable radical DPPH, which has a maximum absorption at about 515 nm. Thus, by measuring the decrease in absorbance over time of DPPH solutions to which increasing amounts of the tested compound are added, the antioxidant activity of the compound can be determined.
[…]. To 2.90 mL of MeOH, 60 μL of a DPPH solution in MeOH (∼1.2 mM) and 40 μL of an antioxidant solution in MeOH (4.5 mM) were added to have in the cuvette concentrations of DPPH equal to about 25 μM and of antioxidant equal to 60 μM. The exact DPPH concentration was calculated through the Lambert–Beer relation, known the extinction coefficient of DPPH at 515 nm, equal to 1.25 × 10^4.[34] The absorbance was recorded until the plateau was reached.
. To obtain the initial DPPH concentration, 2.94 mL of MeOH and 60 μL of the DPPH solution in MeOH (∼1.2 mM) were placed in a polystyrene cuvette and the absorbance was recorded at 515 nm. The exact initial DPPH concentration was calculated through the Lambert–Beer relation. For subsequent measurements, the cuvettes were set up by introducing the opportune volume of MeOH to reach a total volume of 3 mL, 60 μL of the DPPH solution in MeOH (∼1.2 mM, to have a final concentration of ∼25 μM), and the appropriate volumes of the antioxidant stock solution in MeOH to have final concentrations between 1.5 and 12 μM for 20 and between 5 and 60 μM for 18 and 30; the absorbance was recorded at 515 nm at the plateau and then after 1 min for compound 20 and after 90 min for compounds 18 and 30. Each measure was repeated four times. With absorbance data, the percentages of residual DPPH at steady state were obtained using the following equation: [drawing 3] where Ac is the average of absorbance in the presence of antioxidant at plateau and A0 is the average of the initial absorbance of DPPH.
The same procedure was performed using ascorbic acid as the antioxidant at cuvette concentrations between 1.5 and 18 μM, recording the absorbance at 515 nm after 2 min from the preparation of the cuvettes.

U-87 MG cell line = assay: Cytotoxicity, MTT cell viability assay; details: 24 h
Description: Data represent the absorbance % (± SD) relative to untreated cells in the same experiment and standardized to 100%. All data points were performed in triplicate and at least three independent experiments.
After an incubation time of 24 h, the medium was replaced by a new fresh medium containing 0.5 mg/mL MTT (Sigma, Deisenhofen, Germany). After 2 h at 37 °C in 5% CO2, unreacted dye was removed and cells were dissolved by DMSO (Merck, Darmstadt, Germany). Absorbance was read at 570 nm by a microtiter spectrophotometer plate reader. The data were expressed as absorbance relative to untreated cells in the same experiment and standardized to 100%. All data points were performed in triplicate and at least three independent experiments.

[2] = molecular target: T1, Electrophorus electricus AChE (EeAChE) (Electrophorus electricus, UniProt O42275); assay: biochemical; details: 100 μM acetylthiocholine; read-out: EeAChE, IC50 ± SE
T1 construct: purchased Sigma-Aldrich (Milan, Italy)
Description: The recorded data were analyzed with the enzyme kinetic module of SigmaPlot. All measurements were replicated three times, and the IC50 value obtained was confirmed by repeating the experiment twice.
For this purpose, eight different inhibitor solutions were prepared. […] The recorded data were analyzed by the enzyme kinetic module of SigmaPlot plotting the percentages of inhibition as a function of the different concentrations of the inhibitor, expressed in logarithmic scale, to obtain the sigmoid graph, from which it was possible to determine the IC50 value of the tested compound. The IC50 was confirmed by repeating the experiment twice.

T1 sequence (O42275 24-633): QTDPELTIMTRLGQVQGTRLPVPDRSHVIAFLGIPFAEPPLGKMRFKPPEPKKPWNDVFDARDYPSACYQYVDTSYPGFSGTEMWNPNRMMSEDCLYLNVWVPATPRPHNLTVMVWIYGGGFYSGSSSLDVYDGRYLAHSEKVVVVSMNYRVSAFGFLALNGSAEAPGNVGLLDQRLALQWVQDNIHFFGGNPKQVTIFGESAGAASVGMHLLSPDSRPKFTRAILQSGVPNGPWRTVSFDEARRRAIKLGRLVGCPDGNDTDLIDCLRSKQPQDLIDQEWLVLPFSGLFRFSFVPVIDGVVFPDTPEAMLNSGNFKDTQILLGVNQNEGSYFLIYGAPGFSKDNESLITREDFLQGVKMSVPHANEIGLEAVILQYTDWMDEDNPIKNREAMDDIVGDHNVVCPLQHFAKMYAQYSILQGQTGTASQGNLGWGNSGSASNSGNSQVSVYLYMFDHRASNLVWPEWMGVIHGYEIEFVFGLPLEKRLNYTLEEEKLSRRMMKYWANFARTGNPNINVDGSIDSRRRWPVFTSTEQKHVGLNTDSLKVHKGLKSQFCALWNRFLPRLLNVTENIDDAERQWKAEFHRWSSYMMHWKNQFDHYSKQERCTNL

| SMILES | antioxidant activity (reaction with DPPH) [1] | reaction time (time for reaching the plateau) [1] [min] | cytotoxicity on U-87 MG cells (U-87 MG cell line; concentrations up to 10 μM) | IC50 [2] [nM] | cytotoxic effect on U-87 MG cells (U-87 MG cell line; 1 to 50 μM) |
| --- | --- | --- | --- | --- | --- |
| COc1cc(CNCCCCCCNc2ncccn2)ccc1O [Compound 18, 2-Methoxy-4-(((6-(pyrimidin-2-ylamino)hexyl)amino)methyl)phenol] | antioxidant properties; also recorded: showed antioxidant activity; also recorded: possess antioxidant activity | 90 | – | – | – |
| Oc1cccc(CNCCCCCCNc2ncccn2)c1 [Compound 19, 3-(((6-(Pyrimidin-2-ylamino)hexyl)amino)methyl)phenol] | did not show a significant ability to interact with DPPH; also recorded: no significant antioxidant capacity | – | – | – | – |
| Oc1cccc(CNCCCCCCNc2ncccn2)c1O [Compound 20, 3-(((6-(Pyrimidin-2-ylamino)hexyl)amino)methyl)benzene-1,2-diol] | antioxidant properties; also recorded: showed antioxidant activity; also recorded: possess antioxidant activity; also recorded: most efficient antioxidant | 1 | not cytotoxic | 622 | – |
| c1cnc(NCCCCCCNCc2c[nH]c3ccccc23)nc1 [Compound 22, N^1-((1H-Indol-3-yl)methyl)-N^6-(pyrimidin-2-yl)hexane-1,6-diamine] | – | – | – | – | more pronounced cytotoxic effect |
| COc1cc(CNCCCCCCNc2ccccn2)ccc1O [Compound 30, 2-Methoxy-4-(((6-(pyridin-2-ylamino)hexyl)amino)methyl)phenol] | antioxidant properties; also recorded: showed antioxidant activity; also recorded: possess antioxidant activity | 90 | – | – | – |
